Test results taken from the Kinase Knowledgebase extract (Sharma et al. 2016).

target: CDK2 (UniProt P24941); experiment: Enzyme Assay

Compound	IC50 [µM]
CC(C)(O)[C@@H]1CCCN1c1cc(NCc2cccnc2)n2ncc(Br)c2n1	0.0001 to 0.1
O=c1ccc(CNc2cc(-c3ccccc3F)nc3c(Br)cnn23)c[nH]1	0.0001 to 0.1
Brc1cnn2c(NCc3cccnc3)cc(-c3ccco3)nc12	0.0001 to 0.1
CC(C)(O)[C@@H]1CCCN1c1cc(NCc2ccc[n+]([O-])c2)n2ncc(Br)c2n1	0.0001 to 0.1
Cc1ccccc1-c1cc(NCc2ccc[n+]([O-])c2)n2ncc(Br)c2n1	0.0001 to 0.1
OCC1(Nc2cc(NCc3cccnc3)n3ncc(Br)c3n2)CCCC1	0.0001 to 0.1
N[C@H]1CC[C@H](Nc2cc(NCc3cccnc3)n3ncc(Br)c3n2)CC1	0.0001 to 0.1
O=c1ccc(CNc2cc(C3CCCCC3)nc3c(Br)cnn23)c[nH]1	0.0001 to 0.1
CCOc1ccc(CNc2cc(-c3ccccc3)nc3c(Br)cnn23)c[n+]1[O-]	0.0001 to 0.1
Brc1cnn2c(NCc3cccnc3)cc(C3CCOCC3)nc12	0.0001 to 0.1
[O-][n+]1cccc(CNc2cc(-c3ccc(Cl)cc3)nc3c(Br)cnn23)c1	0.0001 to 0.1
Cn1cnc2cc(CNc3cc(-c4ccccc4)nc4c(Br)cnn34)ccc21	0.0001 to 0.1
O=c1ccc(CNc2cc(-c3ccccc3)nc3c(Br)cnn23)c[nH]1	0.0001 to 0.1
[O-][n+]1cccc(CNc2cc(-c3cccs3)nc3c(Br)cnn23)c1	0.0001 to 0.1
CC(C)(O)[C@H]1CCCC[C@H]1c1cc(NCc2cccnc2)n2ncc(Br)c2n1	0.0001 to 0.1
CS(=O)(=O)N1CCCC(c2cc(NCc3cccnc3)n3ncc(Br)c3n2)C1 (configuration not stated)	0.0001 to 0.1
OCC1CCCCN1c1cc(NCc2cccnc2)n2ncc(Br)c2n1 (configuration not stated)	0.0001 to 0.1

Compound	IC50 [µM]
CCc1cnn2c(NCc3ccnc(O)c3)cc(-c3ccccc3)nc12	0.0001 to 0.1
OCCC1CCCCN1c1cc(NCc2cccnc2)n2ncc(Br)c2n1 (configuration not stated)	0.0001 to 0.1
Nc1ncc(CNc2cc(C3CCCNC3)nc3c(Br)cnn23)cn1 (configuration not stated)	0.0001 to 0.1
OC[C@H]1CCCC[C@H]1c1cc(NCc2cccnc2)n2ncc(Br)c2n1	0.0001 to 0.1
COc1c(Cl)cc(CNc2cc(-c3ccccc3)nc3c(Br)cnn23)c[n+]1[O-]	0.0001 to 0.1
[O-][n+]1cccc(CNc2cc(-c3ccccc3Cl)nc3c(Br)cnn23)c1	0.0001 to 0.1
CC(C)[C@H](CO)Nc1cc(NCc2ccc[n+]([O-])c2)n2ncc(Br)c2n1	0.0001 to 0.1
Oc1cc(CNc2cc(C3CCCCC3)nc3c(Br)cnn23)ccn1	0.0001 to 0.1
CC(C)[C@@H](CO)Nc1cc(NCc2ccc[n+]([O-])c2)n2ncc(Br)c2n1	0.0001 to 0.1
CC(C)(CO)Nc1cc(NCc2cccnc2)n2ncc(Br)c2n1	0.0001 to 0.1
CC(C)c1cc(NCc2ccc[n+]([O-])c2)n2ncc(Br)c2n1	0.0001 to 0.1
Fc1ccccc1-c1cc(NCc2ccc3[nH]cnc3c2)n2ncc(Br)c2n1	0.0001 to 0.1
[O-][n+]1cccc(CNc2cc(C3CCCCC3)nc3c(Br)cnn23)c1	0.0001 to 0.1
CCc1cnn2c(NCc3ccc[n+]([O-])c3)cc(-c3ccccc3)nc12	0.0001 to 0.1
Brc1cnn2c(NCc3ccc4[nH]cnc4c3)cc(C3CCCCC3)nc12	0.0001 to 0.1
[O-][n+]1cccc(CNc2cc(-c3ccco3)nc3c(Br)cnn23)c1	0.0001 to 0.1

Next, values leading:

IC50 [µM]	Compound
0.0001 to 0.1	Brc1cnn2c(NCc3cccnc3)cc(-c3ccccc3)nc12
0.0001 to 0.1	[O-][n+]1cccc(CNc2cc(N3CCC[C@H]3CO)nc3c(Br)cnn23)c1
0.0001 to 0.1	CC(=O)N1CCC(c2cc(NCc3cccnc3)n3ncc(Br)c3n2)CC1
0.0001 to 0.1	OCC[C@@H]1CCCN1c1cc(NCc2cccnc2)n2ncc(Br)c2n1
0.0001 to 0.1	CNC(=O)c1ccc(CNc2cc(-c3ccccc3F)nc3c(Br)cnn23)cc1
0.0001 to 0.1	[O-][n+]1cc(CNc2cc(-c3ccccc3)nc3c(Br)cnn23)ccc1OCC(F)(F)F
0.0001 to 0.1	CCc1cnn2c(NCc3cccnc3)cc(-c3ccccc3)nc12
0.0001 to 0.1	Brc1cnn2c(NCc3cccnc3)cc(C3CCCCC3)nc12
0.0001 to 0.1	COc1ccc(CNc2cc(-c3ccccc3F)nc3c(Br)cnn23)c[n+]1[O-]
0.0001 to 0.1	NC(=O)N1CCC(c2cc(NCc3cccnc3)n3ncc(Br)c3n2)CC1
0.0001 to 0.1	CCc1cnn2c(NCc3ccc[n+]([O-])c3)cc(C3CCCCC3)nc12
0.0001 to 0.1	Brc1cnn2c(NCc3ccc4[nH]cnc4c3)cc(C3CCNCC3)nc12
0.0001 to 0.1	CC1(C)[C@@H]2[C@@H](CO)N(c3cc(NCc4cccnc4)n4ncc(Br)c4n3)C[C@@H]21
0.0001 to 0.1	O=C(C1CC1)N1CCC(c2cc(NCc3cccnc3)n3ncc(Br)c3n2)CC1
0.0001 to 0.1	[O-][n+]1cccc(CNc2cc(-c3ccccc3F)nc3c(Br)cnn23)c1
0.0001 to 0.1	CC(=O)N1CCCC(c2cc(NCc3cccnc3)n3ncc(Br)c3n2)C1 (configuration not stated)
0.0001 to 0.1	Brc1cnn2c(NCc3cccnc3)cc(C3CCCNC3)nc12 (configuration not stated)
0.0001 to 0.1	OC[C@H]1CCCC[C@H]1Nc1cc(NCc2cccnc2)n2ncc(Br)c2n1
0.0001 to 0.1	O=c1cc(CNc2cc(-c3ccccc3)nc3c(Br)cnn23)cc[nH]1
0.0001 to 0.1	NC(=O)N1CCCC(c2cc(NCc3cccnc3)n3ncc(Br)c3n2)C1 (configuration not stated)
0.0001 to 0.1	CCc1cnn2c(NCc3ccc[n+]([O-])c3)cc(-c3ccccc3F)nc12
0.0001 to 0.1	CCc1cnn2c(NCc3ccc(OC)[n+]([O-])c3)cc(-c3ccccc3F)nc12
0.0001 to 0.1	[O-][n+]1cccc(CNc2cc(-c3ccccc3)nc3c(Br)cnn23)c1
0.0001 to 0.1	CS(=O)(=O)N1CCC(c2cc(NCc3cccnc3)n3ncc(Br)c3n2)CC1
0.0001 to 0.1	[O-][n+]1cccc(CNc2cc(C3CCOCC3)nc3c(Br)cnn23)c1
0.0001 to 0.1	Brc1cnn2c(NCc3ccc(-c4csnn4)cc3)cc(C3CCNCC3)nc12
0.0001 to 0.1	Brc1cnn2c(NCc3cccnc3)cc(C3CCNCC3)nc12
0.0001 to 0.1	CC(C)Oc1ccc(CNc2cc(-c3ccccc3F)nc3c(Br)cnn23)c[n+]1[O-]
0.0001 to 0.1	[O-][n+]1cccc(CNc2cc(C3CCNCC3)nc3c(Br)cnn23)c1
